# From patent US5110976A, “Insecticidal composition comprising more than one active ingredient” (priority 1985, dated 1992)
# Key:
# Myzus persicae = assay: 5 EC formulations on aphid-infected bean plants (Table 22); type: in vivo, green peach aphids (Myzus persicae)
# Method: 15 bean plants infected with green peach aphids (Myzus persicae) at 6 days' age are cultivated in each pot. At 12 days' age the strongly and uniformly infected plants are selected and sprayed to run-off with emulsions freshly prepared from the formulation according to Example 42. Treatments are carried out with three doses (active ingredient 2.5, 5 and 10 ppm) and four parallels are used (one pot per parallel). The second, fourth and eighth day after treatment the aphids are swept down from the plants to a white paper with a fine brush and the live insects are counted.
# Acanthoscelides obtectus = assay: 5 EC formulations sprayed on glass plates (Table 21); type: in vivo, bean weevil (Acanthoscelides obtectus), imagos; details: 5 EC formulation, 24 hours
# Method: (§1) The 5 EC formulations prepared according to Example 42 are diluted 50x, 100x, 200x, 400x, 800x and 1600x with water and 0.5 ml doses are sprayed onto glass plates. After drying 10 L. decemlineata imagos are placed on each glass plate and the insects are covered with Petri-dishes. The tests are carried out by using 6 doses and 3 parallels for each dose. The killed insects are counted after 48 hours.
# Glass plates are sprayed with 5 EC formulations prepared according to Example 42 in an analogous manner to Example 52. After drying 10 bean weevil (Acanthoscelides obtectus) imagos are placed on each plate and the insects are covered with Petri-dishes. The killed insects are counted after 24 hours. The test is carried out with 6 doses by using 3 parallels for each dose.
# L. decemlineata = assay: 5 EC formulations sprayed on glass plates (Table 20); type: in vivo, imagos; details: 5 EC formulation, 48 hours
# Method: as §1
# A. matricariae [1] = assay: Direct contact test of pupae (Table 5); type: in vivo
# Method: Mature pupae of A. matricariae on paprika leaves in Petri dishes are exposed to a direct spray of the active ingredients.
# Two or three days before emergence paprika leaves with parasitized pupae are used. The leaves are laid on filter paper in a plastic Petri dish The filter paper is moistened.
# Application of treatment: See Example 23.
# The pieces of leaf are transferred after treatment to clean Petri dish bottoms The trays are stored in a clinic chamber at 20° C. temperature, 70% relative humidity and a light-dark cycle of […]. Surviving pupae hatch after 2-3 days. The numbers of hatched and dead pupae are counted.
# Tetranychus urticae = assay: Potter Tower spray on mite-infested leaves (Table 19); type: in vivo, mites (Tetranychus urticae); details: Tetranychus urticae, 24 h, mortality after 24 hours; read-out: approx. LD50
# Method: Leaves already infested with mites (Tetranychus urticae) were sprayed under Potter Tower. Mortality after 24 hours on the treated leaves was compared with the control.
# Colorado potato beetle [2] = assay: Topical test on Colorado potato beetle (Table 14); type: in vivo, Colorado potato beetle (Leptinotersa decemlineata), imago; details: Leptinotarsa decemlineata, topical
# Method: In Table 14 the activity on Colorado potato beetle is shown.
# The test materials are dissolved in 2-ethoxyethanol (Cellosolve). One 0.3 μl drop of the solution is applied to the abdominal sterna of the imago. The treatment is carried out by using 2 parallels and 10 insects for each dose. […]
# A. matricariae [3] = assay: Direct contact test on pupae (Table 26); type: in vivo
# Method: Mature pupae of A. matricariae on paprika leaves in Petri-dishes are exposed to a direct spray of the active ingredients. Two or three days before emergence paprika leaves with parasitized pupae are used. The leaves are laid on moistened filter paper in a plastic Petri-dish.
# Application of treatment: See Example 57.
# The pieces of leaf are transferred after treatment to clean Petri-dish bottoms. The trays are stored in a climatic chamber at 20° C. temperature, 70% relative humidity and a light-dark cycle of 16-8 h. Surviving pupae hatch after 2-3 days. The numbers of hatched and dead pupae are counted.
# Colorado potato beetle [4] = assay: Plot field test on Colorado potato beetle (Table 24); type: in vivo, adults; details: 10 g active ingredients/ha
# Method: The treatments are performed on a 25 m^2 plot strongly infected with Colorado potato beetle. 10 plants per plot are specially marked on which the Colorado potato beetles were counted previously. (During assessment of the number of pests only adults of the second Summer generation are taken into consideration, because at the point of time of the test the ratio of larvae of stages L3 and L4 is negligible). Treatment is accomplished on 25 M^2 plots at a dose of 10 g of active ingredients/ha with aqueous suspensions of the formulations according to Example 37 and three parallels are used. The test is evaluated by counting the leave insects on the marked plants. The average values of three parallel tests are disclosed in Table 24.
# Aphidinus matricariae = assay: Residual contact test on adults (Table 25); type: in vivo, adult females
# Method: Residual contact test on adults of Aphidinus matricariae. Adults of A. matricariae are exposed to residues of the active ingredients freshly applied on glass plates forming cages, then the survivors are counted.
# Treatment: test product and control treated with water.
# Replicates: at least 3. Plot size (net): 1 cage.
# Parasites of known age (24 hours) are used. […]
# 10 females of A. matricariae are introduced into each cage and supplied with honey as food. The number of females surviving exposure is determined after 1, 5 and 24 hours, in independent runs. Total number of survivors is calculate for each cage.
compound,measurement,setting,value
CC1(C)[C@H](C(=O)O[C@H](C#N)c2cccc(Oc3ccccc3)c2)[C@@H]1C=C(Br)Br [deltamethrin],Average number of aphids per pot,"Myzus persicae; 2.5 ppm, 2 days after treatment (control 1850)",26
same,Average number of aphids per pot,"Myzus persicae; 2.5 ppm, 4 days after treatment (control 2780)",47
same,Average number of aphids per pot,"Myzus persicae; 2.5 ppm, 8 days after treatment (control 4120)",137
same,Average number of aphids per pot,"Myzus persicae; 5.0 ppm, 2 days after treatment (control 1850)",13
same,Average number of aphids per pot,"Myzus persicae; 5.0 ppm, 4 days after treatment (control 2780)",19
same,Average number of aphids per pot,"Myzus persicae; 5.0 ppm, 8 days after treatment (control 4120)",29
same,Average number of aphids per pot,"Myzus persicae; 10.0 ppm, 2 days after treatment (control 1850)",6
same,Average number of aphids per pot,"Myzus persicae; 10.0 ppm, 4 days after treatment (control 2780)",11
same,Average number of aphids per pot,"Myzus persicae; 10.0 ppm, 8 days after treatment (control 4120)",23
same,Mortality %,Acanthoscelides obtectus; dilution 50x,75%
same,Mortality %,Acanthoscelides obtectus; dilution 100x,57%
same,Mortality %,Acanthoscelides obtectus; dilution 200x,37%
same,Mortality %,Acanthoscelides obtectus; dilution 400x,20%
same,Mortality %,Acanthoscelides obtectus; dilution 800x,13%
same,Mortality %,Acanthoscelides obtectus; dilution 1600x,7%
same,Mortality %,L. decemlineata; dilution 50x,100%
same,Mortality %,L. decemlineata; dilution 100x,83%
same,Mortality %,L. decemlineata; dilution 200x,67%
same,Mortality %,L. decemlineata; dilution 400x,53%
same,Mortality %,L. decemlineata; dilution 800x,35%
same,Mortality %,L. decemlineata; dilution 1600x,7%
same,Mortality %,A. matricariae [1]; 1 ppm,0%
same,Mortality %,A. matricariae [1]; 5 ppm,0%
same,Mortality %,A. matricariae [1]; 10 ppm,33.0%
same,Mortality %,A. matricariae [1]; 30 ppm,75.0%
same,LC50,Tetranychus urticae,~0.185 µg/mL
same,mortality at 0.05 µg/beetle,"Colorado potato beetle [2]; read-out: 24 hours' mortality %, 0.05 μg/beetle",45%
same,mortality at 0.1 µg/beetle,"Colorado potato beetle [2]; read-out: 24 hours' mortality %, 0.10 μg/beetle",60%
same,mortality at 0.2 µg/beetle,"Colorado potato beetle [2]; read-out: 24 hours' mortality %, 0.20 μg/beetle",75%
same,mortality at 0.4 µg/beetle,"Colorado potato beetle [2]; read-out: 24 hours' mortality %, 0.40 μg/beetle",85%
same,Mortality %,A. matricariae [3]; 1 ppm,0%
same,Mortality %,A. matricariae [3]; 5 ppm,0%
same,Mortality %,A. matricariae [3]; 10 ppm,33.0%
same,Mortality %,A. matricariae [3]; 33 ppm,75.0%
same,Average number of live insects/10 plants,Colorado potato beetle [4]; 0 days after treatment (control 211),181
same,Average number of live insects/10 plants,Colorado potato beetle [4]; 1 day after treatment (control 206),7
same,Average number of live insects/10 plants,Colorado potato beetle [4]; 3 days after treatment (control 179),10
same,Average number of live insects/10 plants,Colorado potato beetle [4]; 9 days after treatment (control 183),19
same,Mortality %,"Aphidinus matricariae; 1 ppm, 1h",20%
same,Mortality %,"Aphidinus matricariae; 1 ppm, 5h",100%
same,Mortality %,"Aphidinus matricariae; 1 ppm, 24h",85%
same,Mortality %,"Aphidinus matricariae; 5 ppm, 1h",100%
